Laboratory results from ChEMBL document CHEMBL1629553, “Antimalarial activity of a new stilbene glycoside from Parthenocissus tricuspidata in mice” (Antimicrob Agents Chemother, 2008).
Calls of active or inactive are those of the source. The calls are words filed in the database; no cut-off is given here.

How the values were obtained:
Plasmodium berghei [1] = test: Antimalarial activity against chloroquine-sensitive Plasmodium berghei ATCC 50175 infected in ICR mouse assessed as reduced parasitemia at 25 mg/kg/day, po administered 24 hrs post-treatment for 4 day measured on day 7; format: functional; set-up: scale not given: the % may be the effect or the level left
Plasmodium berghei [2] = test: Antimalarial activity against chloroquine-sensitive Plasmodium berghei ATCC 50175 infected ICR mouse assessed as increase in mouse survival at 5 to 25 mg/kg/day, po administered 24 hrs post-treatment; format: functional
Plasmodium berghei [3] = test: Antimalarial activity against chloroquine-sensitive Plasmodium berghei ATCC 50175 infected in ICR mouse assessed as chemosuppression of parasitemia at 5 mg/kg/day, po pretreated for 4 days before infection and measured after 72 hrs; format: functional
Plasmodium berghei [4] = test: Antimalarial activity against chloroquine-sensitive Plasmodium berghei ATCC 50175 infected in ICR mouse assessed as chemosuppression of parasitemia at 5 mg/kg/day, po administered 24 hrs post-treatment measured after 4 days; format: functional
Plasmodium berghei [5] = test: Antimalarial activity against chloroquine-sensitive Plasmodium berghei ATCC 50175 infected in ICR mouse assessed as reduced parasitemia at 5 mg/kg/day, po administered 24 hrs post-treatment measured on day 3; format: functional; set-up: scale not given: the % may be the effect or the level left
Plasmodium berghei [6] = test: Antimalarial activity against chloroquine-sensitive Plasmodium berghei ATCC 50175 infected in ICR mouse assessed as chemosuppression of parasitemia at 25 mg/kg/day, po administered 24 hrs post-treatment measured after 4 days; format: functional
Plasmodium berghei [7] = test: Antimalarial activity against chloroquine-sensitive Plasmodium berghei ATCC 50175 infected in ICR mouse assessed as parasitemia at 10 mg/kg/day, po administered 24 hrs post-treatment measured after 4 days (reference value: 56.3+/-0.16 %); format: functional
Plasmodium berghei [8] = test: Antimalarial activity against chloroquine-sensitive Plasmodium berghei ATCC 50175 infected in ICR mouse assessed as reduced parasitemia at 10 mg/kg/day, po administered 24 hrs post-treatment for 4 day measured on day 7; format: functional; set-up: scale not given: the % may be the effect or the level left
Plasmodium berghei [9] = test: Antimalarial activity against chloroquine-sensitive Plasmodium berghei ATCC 50175 infected in ICR mouse assessed as chemosuppression of parasitemia at 25 mg/kg/day, po pretreated for 4 days before infection and measured after 72 hrs; format: functional
Plasmodium berghei [10] = test: Antimalarial activity against chloroquine-sensitive Plasmodium berghei ATCC 50175 infected in ICR mouse assessed as chemosuppression of parasitemia at 10 mg/kg/day, po pretreated for 4 days before infection and measured after 72 hrs; format: functional
Plasmodium berghei [11] = test: Antimalarial activity against chloroquine-sensitive Plasmodium berghei ATCC 50175 infected in ICR mouse assessed as parasitemia at 25 mg/kg/day, po administered 24 hrs post-treatment measured after 4 days (reference value: 56.3+/-0.16 %); format: functional
Plasmodium berghei [12] = test: Antimalarial activity against chloroquine-sensitive Plasmodium berghei ATCC 50175 infected in ICR mouse assessed as reduced parasitemia at 10 mg/kg/day, po administered 24 hrs post-treatment measured on day 3; format: functional; set-up: scale not given: the % may be the effect or the level left
Mus musculus = test: Toxicity against chloroquine-sensitive Plasmodium berghei ATCC 50175 infected ICR mouse at 5 to 25 mg/kg, po; format: organism-based; set-up: dose 5-25 mg/kg, route oral; conditions: in vivo
Plasmodium berghei [13] = test: Antimalarial activity against chloroquine-sensitive Plasmodium berghei ATCC 50175 infected in ICR mouse assessed as parasitemia at 25 mg/kg/day, po pretreated for 4 days before infection and measured after 72 hrs (reference value: 4.6+/-0.21 %); format: functional
Plasmodium berghei [14] = test: Antimalarial activity against chloroquine-sensitive Plasmodium berghei ATCC 50175 infected in ICR mouse assessed as parasitemia at 10 mg/kg/day, po pretreated for 4 days before infection and measured after 72 hrs (reference value: 4.6+/-0.21 %); format: functional
Plasmodium berghei [15] = test: Antimalarial activity against chloroquine-sensitive Plasmodium berghei ATCC 50175 infected in ICR mouse assessed as parasitemia at 5 mg/kg/day, po administered 24 hrs post-treatment measured after 4 days (reference value: 56.3+/-0.16 %); format: functional
Plasmodium berghei [16] = test: Antimalarial activity against chloroquine-sensitive Plasmodium berghei ATCC 50175 infected in ICR mouse assessed as reduced parasitemia at 5 mg/kg/day, po administered 24 hrs post-treatment for 4 day measured on day 7; format: functional; set-up: scale not given: the % may be the effect or the level left
Plasmodium berghei [17] = test: Antimalarial activity against chloroquine-sensitive Plasmodium berghei ATCC 50175 infected in ICR mouse assessed as reduced parasitemia at 25 mg/kg/day, po administered 24 hrs post-treatment measured on day 3; format: functional; set-up: scale not given: the % may be the effect or the level left
Plasmodium berghei [18] = test: Antimalarial activity against chloroquine-sensitive Plasmodium berghei ATCC 50175 infected in ICR mouse assessed as chemosuppression of parasitemia at 10 mg/kg/day, po administered 24 hrs post-treatment measured after 4 days; format: functional
Plasmodium berghei [19] = test: Antimalarial activity against chloroquine-sensitive Plasmodium berghei ATCC 50175 infected in ICR mouse assessed as parasitemia at 5 mg/kg/day, po pretreated for 4 days before infection and measured after 72 hrs (reference value: 4.6+/-0.21 %); format: functional
Plasmodium berghei [20] = test: Antimalarial activity against chloroquine-sensitive Plasmodium berghei ATCC 50175 infected ICR mouse assessed as survival of mouse at 25 mg/kg/day, po for 4 days measured after 30 days; format: functional, organism-based
Plasmodium berghei [21] = test: Antimalarial activity against chloroquine-sensitive Plasmodium berghei ATCC 50175 infected ICR mouse assessed as survival of mouse at 10 mg/kg/day, po for 4 days measured after 27 days; format: functional, organism-based
Plasmodium berghei [22] = test: Antimalarial activity against chloroquine-sensitive Plasmodium berghei ATCC 50175 infected ICR mouse assessed as survival of mouse at 5 mg/kg/day, po for 4 days measured after 25 days; format: functional, organism-based
Plasmodium berghei [23] = test: Antimalarial activity against chloroquine-sensitive Plasmodium berghei ATCC 50175 infected ICR mouse assessed as survival of mouse at 5 mg/kg/day, po for 4 days measured after 30 days; format: functional, organism-based
Plasmodium berghei [24] = test: Antimalarial activity against chloroquine-sensitive Plasmodium berghei ATCC 50175 infected in ICR mouse assessed as chemosuppression of parasitemia at 1.2 mg/kg/day, po pretreated for 4 days before infection and measured after 72 hrs; format: functional
Plasmodium berghei [25] = test: Antimalarial activity against chloroquine-sensitive Plasmodium berghei ATCC 50175 infected in ICR mouse assessed as parasitemia at 1.2 mg/kg/day, po pretreated for 4 days before infection and measured after 72 hrs (reference value: 4.6+/-0.21 %); format: functional

**Q.** With `OC[C@H]1O[C@@H](OC[C@@H]2O[C@H](Oc3cc(O)cc(/C=C/c4ccc(O)cc4)c3)[C@@H](O)[C@H](O)[C@H]2O)[C@H](O)[C@@H](O)[C@@H]1O` as the compound, how does the Activity (Plasmodium berghei [1]) read?
**A.** 89.4%

**Q.** And the Time (Plasmodium berghei [2])?
**A.** 96 h

**Q.** And the Activity (Plasmodium berghei [3])?
**A.** 58.7%

**Q.** What about the Activity (Plasmodium berghei [4]) of the same compound?
**A.** 44.3%

**Q.** What about the Activity (Plasmodium berghei [5]) of the same compound?
**A.** 6.25%

**Q.** What about the Activity (Plasmodium berghei [6]) of the same compound?
**A.** 73.2%

**Q.** What about the Activity (Plasmodium berghei [7]) of the same compound?
**A.** 22.4%

**Q.** And the Activity (Plasmodium berghei [8])?
**A.** 86.3%

**Q.** What about the Activity (Plasmodium berghei [9]) of the same compound?
**A.** 80.1%

**Q.** What about the Activity (Plasmodium berghei [10]) of the same compound?
**A.** 70.6%

**Q.** What about the Activity (Plasmodium berghei [11]) of the same compound?
**A.** 15.2%

**Q.** And the Activity (Plasmodium berghei [12])?
**A.** 18.75%

**Q.** What about the Activity (Mus musculus) of the same compound?
**A.** Non-toxic

**Q.** What about the Activity (Plasmodium berghei [13]) of the same compound?
**A.** 11.3%

**Q.** What about the Activity (Plasmodium berghei [14]) of the same compound?
**A.** 16.5%

**Q.** What about the Activity (Plasmodium berghei [15]) of the same compound?
**A.** 31.3%

**Q.** And the Activity (Plasmodium berghei [16])?
**A.** 73.6%

**Q.** And the Activity (Plasmodium berghei [17])?
**A.** 34.37%

**Q.** And the Activity (Plasmodium berghei [18])?
**A.** 60.2%

**Q.** And the Activity (Plasmodium berghei [19])?
**A.** 23.2%

**Q.** Which results are given for `CCN(CC)CCCC(C)Nc1ccnc2cc(Cl)ccc12` (stereo not drawn) [CHLOROQUINE]?
**A.** Activity (Plasmodium berghei [4]): 89.3%; Activity (Plasmodium berghei [20]): Active; Activity (Plasmodium berghei [21]): Active; Activity (Plasmodium berghei [22]): Active; Activity (Plasmodium berghei [15]): 6.2%; Activity (Plasmodium berghei [23]): Active

**Q.** For `CCc1nc(N)nc(N)c1-c1ccc(Cl)cc1` [PYRIMETHAMINE], which Activity (Plasmodium berghei [24]) is on record?
**A.** 91.8%

**Q.** What about the Activity (Plasmodium berghei [25]) of the same compound?
**A.** 4.6%
